# Tests used:
# [1] = test system: intracellular ROS (Reactive Oxygen Species); experiment: Production of ROS in keratinocytes subjected to H2O2 stress (DCFH-DA probe); type: cell-based, human; conditions: for ROS Mean: H2O2 100 μM
# Experimental: The antioxidant potential of the KPO extract was evaluated in an assay model of intracellular ROS (Reactive Oxygen Species) induced by pro-oxidising H2O2 stress. Normal human epidermal keratinocytes were pre-incubated for 24 hours with KPO extract at 0.001%, 0.002% or 0.005% (d.e.) or reference anti-inflammatory molecules Quercetin at 10 μM or Vitamin C at 500 μM. The cell layer was then contacted with a DCFH-DA probe prior to induction of oxidative stress by 100 μM of H2O2. The amount of ROS produced was evaluated by measuring the fluorescence emitted when the probe is oxidised. The results were analysed statistically by one-factor variance analysis followed by a Tukey test: **p<0.01; ***p<0.001.
# Fibronectin = experiment: Gene expression in normal human dermal fibroblasts (RT-qPCR): Fibronectin; type: cell-based; conditions: TGFβ1 5 ng/ml
# Experimental: (§1) The effect of the KPO extract was evaluated on the gene expression of markers involved in cell communication and in the organisation of the dermal extracellular matrix in the fibroblasts: normal human dermal fibroblasts were incubated for 6 hours or 24 hours with 0.0005% or 0.001% KPO extract (d.e.) or TGFβ1 at 5 ng/ml (positive control for dermal matrix induction markers). At the end of incubation, the gene expression of the following markers was analysed by RT-qPCR. • CTNNA1 (Catenin α): binds to cadherins to promote cellular interactions. • Syndecan: proteoglycan which consolidates cell/cell and cell/matrix interactions. • Laminin 5 (α3β3γ2): a molecule that assists adhesion to the basal membrane. • TNC (Tenacin C): extracellular matrix proteins involved in cohesion of the dermo-epidermal junction and which promote the synthesis of collagen VII. • SPARC: protein associated with various constituents of the extracellular matrix and which contributes to its organisation. • BGN (Biglycan): proteoglycan involved in the assembly of collagen fibres. • Versican: a major component of the ECM which plays a central role in the morphogenesis and maintenance of tissues. […]
# (§2) The results are given as relative quantities (RQ) with respect to the untreated control. […]
# Versican = experiment: Gene expression in normal human dermal fibroblasts (RT-qPCR): Versican; type: cell-based; conditions: TGFβ1 5 ng/ml
# Experimental: as §1, §2
# SPARC = experiment: Gene expression in normal human dermal fibroblasts (RT-qPCR): SPARC; type: cell-based; conditions: TGFβ1 5 ng/ml
# Experimental: as §1, §2
# Elastin = experiment: Gene expression in normal human dermal fibroblasts (RT-qPCR): Elastin; type: cell-based; conditions: TGFβ1 5 ng/ml
# Experimental: as §1, §2
# Syndecan = experiment: Gene expression in normal human dermal fibroblasts (RT-qPCR): Syndecan; type: cell-based; conditions: TGFβ1 5 ng/ml
# Experimental: as §1, §2
# Collagen VII = experiment: Gene expression in normal human dermal fibroblasts (RT-qPCR): Collagen VII; type: cell-based; conditions: TGFβ1 5 ng/ml
# Experimental: as §1, §2
# LOXL = experiment: Gene expression in normal human dermal fibroblasts (RT-qPCR): LOXL; type: cell-based; conditions: TGFβ1 5 ng/ml
# Experimental: as §1, §2
# Collagen IV = experiment: Gene expression in normal human dermal fibroblasts (RT-qPCR): Collagen IV; type: cell-based; conditions: TGFβ1 5 ng/ml
# Experimental: as §1, §2
# BGN (Biglycan) = experiment: Gene expression in normal human dermal fibroblasts (RT-qPCR): BGN; type: cell-based; conditions: TGFβ1 5 ng/ml
# Experimental: as §1, §2
# Dermatopontin = experiment: Gene expression in normal human dermal fibroblasts (RT-qPCR): Dermatopontin; type: cell-based; conditions: TGFβ1 5 ng/ml
# Experimental: as §1, §2
# Collagen III = experiment: Gene expression in normal human dermal fibroblasts (RT-qPCR): Collagen III; type: cell-based; conditions: TGFβ1 5 ng/ml
# Experimental: as §1, §2
# TNC (Tenacin C) = experiment: Gene expression in normal human dermal fibroblasts (RT-qPCR): TNC; type: cell-based; conditions: TGFβ1 5 ng/ml
# Experimental: as §1, §2
# CTNNA1 (Catenin α) = experiment: Gene expression in normal human dermal fibroblasts (RT-qPCR): CTNNA1; type: cell-based; conditions: TGFβ1 5 ng/ml
# Experimental: as §1, §2
# Collagen I = experiment: Gene expression in normal human dermal fibroblasts (RT-qPCR): Collagen I; type: cell-based; conditions: TGFβ1 5 ng/ml
# Experimental: as §1, §2
# Prostaglandin E2 (PGE2) = experiment: Production of PGE2 in keratinocytes stimulated by PMA (ELISA); type: cell-based, human; conditions: indomethacin at 0.1 μM
# Experimental: The keratinocytes were then stimulated by 10 μg/ml of PMA (Phorbol Myristate Acetate) and incubated overnight with KPO extract or reference molecules. […] The significance was evaluated by means of one-factor variance analysis followed by a Tukey test: *p<0.05; ***p<0.001; ns: non-significant p>0.05.
compound,measurement,setting,value
O=c1c(O)c(-c2ccc(O)c(O)c2)oc2cc(O)cc(O)c12 [Quercetin],ROS change vs H2O2,[1]; Quercetin at 10 μmol/l,−90% vs H2O2 ***
same,ROS Mean,[1]; Quercetin at 10 μmol/l,12959.361 Arbitrary Unit
TGFβ1: positive control for dermal matrix induction markers,Fibronectin Degree of expression (Relative Quantity),Fibronectin; 6 h of treatment,1.09 ns
same,Fibronectin Degree of expression (Relative Quantity),Fibronectin; 24 h of treatment,2.12 *
same,Versican Degree of expression (Relative Quantity),Versican; 6 h of treatment,1.61 ns
same,Versican Degree of expression (Relative Quantity),Versican; 24 h of treatment,2.87 **
same,SPARC Degree of expression (Relative Quantity),SPARC; 6 h of treatment,1.28 ns
same,SPARC Degree of expression (Relative Quantity),SPARC; 24 h of treatment,2.00 ***
same,Elastin Degree of expression (Relative Quantity),Elastin; 6 h of treatment,0.72 ns
same,Elastin Degree of expression (Relative Quantity),Elastin; 24 h of treatment,3.65 **
same,Syndecan Degree of expression (Relative Quantity),Syndecan; 6 h of treatment,1.85 ns
same,Syndecan Degree of expression (Relative Quantity),Syndecan; 24 h of treatment,8.08 ***
same,Collagen VII Degree of expression (Relative Quantity),Collagen VII; 6 h of treatment,1.96 ***
same,Collagen VII Degree of expression (Relative Quantity),Collagen VII; 24 h of treatment,3.07 ***
same,LOXL Degree of expression (Relative Quantity),LOXL; 6 h of treatment,1.05 ns
same,LOXL Degree of expression (Relative Quantity),LOXL; 24 h of treatment,1.10 ns
same,Collagen IV Degree of expression (Relative Quantity),Collagen IV; 6 h of treatment,1.68 ***
same,Collagen IV Degree of expression (Relative Quantity),Collagen IV; 24 h of treatment,2.81 **
same,BGN Degree of expression (Relative Quantity),BGN (Biglycan); 6 h of treatment,1.28 ns
same,BGN Degree of expression (Relative Quantity),BGN (Biglycan); 24 h of treatment,2.92 ***
same,Dermatopontin Degree of expression (Relative Quantity),Dermatopontin; 6 h of treatment,1.14 ns
same,Dermatopontin Degree of expression (Relative Quantity),Dermatopontin; 24 h of treatment,1.36 *
same,Collagen III Degree of expression (Relative Quantity),Collagen III; 6 h of treatment,0.91 ns
same,Collagen III Degree of expression (Relative Quantity),Collagen III; 24 h of treatment,1.24 ns
same,TNC Degree of expression (Relative Quantity),TNC (Tenacin C); 6 h of treatment,0.94 ns
same,TNC Degree of expression (Relative Quantity),TNC (Tenacin C); 24 h of treatment,1.79 *
same,CTNNA1 Degree of expression (Relative Quantity),CTNNA1 (Catenin α); 6 h of treatment,1.07 ns
same,CTNNA1 Degree of expression (Relative Quantity),CTNNA1 (Catenin α); 24 h of treatment,1.07 ns
same,Collagen I Degree of expression (Relative Quantity),Collagen I; 6 h of treatment,0.84 ns
same,Collagen I Degree of expression (Relative Quantity),Collagen I; 24 h of treatment,2.30 *
"O=C1O[C@H]([C@@H](O)CO)C(O)=C1O [Vit C, Vitamin C]",ROS change vs H2O2,[1]; Vit C 500 μM,−90% vs H2O2 ***
same,ROS Mean,[1]; Vit C 500 μM,12807.703 Arbitrary Unit
"COc1ccc2c(c1)c(CC(=O)O)c(C)n2C(=O)c1ccc(Cl)cc1 [Indo, indomethacin]",PGE2 change vs PMA,Prostaglandin E2 (PGE2),−77% vs PMA ***
same,PGE2 Mean,Prostaglandin E2 (PGE2); PMA stimulated,181.780 (pg/ml)/OD neutral red

# Reference: patent US11484559B2, “Kapok tree flower extract, and cosmetic, pharmaceutical or dermatological compositions containing same” (Laboratoires Expanscience, priority 2017, dated 2022)
